Measurements: patent publication US10738040B2, “Compounds, compositions, and methods for increasing CFTR activity” (Proteostasis Therapeutics, Inc., priority 2014, dated 2020)

Columns and labels:
ΔF508-CFTR [1] = biological target: T1, ΔF508-CFTR (Homo sapiens, UniProt P13569, DEL508-508); assay: hBE equivalent current (Ieq) assay; format: cell-based; conditions: compound at 10 uM and VX-809 at 1 uM, relative to VX-809 (1 uM); primary lung epithelial cells homozygous for ΔF508, 24 hours treatment; AUC of equivalent chloride current
T1 construct: Primary lung epithelial cells homozygous for the Cystic Fibrosis-causing ΔF508 mutation were differentiated; endogenous in cells; host or cells: primary human lung (bronchial) epithelial cells homozygous for ΔF508, differentiated at air-liquid interface
Description: ii. hBE Equivalent Current (Ieq) Assay
Primary lung epithelial cells homozygous for the Cystic Fibrosis-causing ΔF508 mutation were differentiated for a minimum of 4 weeks in an air-liquid interface on Costar 24 well HTS filter plates prior to the equivalent current (Ieq) measurements. Cells were apically mucus-washed for 30 minutes 24 h prior to treatment with compounds. The basolateral media was removed and replaced with media containing the compound of interest diluted to its final concentration from DMSO stocks. Treated cells were incubated at 37° C. and 5% CO2 for 24 hours. At the end of the treatment period, the media was changed to the Ieq experimental solution for 30 minutes before the experiment and plates are maintained in a CO2-free incubator during this period. The plates containing the cells were then placed in pre-warmed heating blocks at 36° ° C.±0.5 for 15 minutes before measurements are taken. The transepithelial voltage (VT) and conductance (GT) were measured using a custom 24 channel current clamp (TECC-24) with 24 well electrode manifold. The Ieq assay measurements were made following additions with standardized time periods: • 1. The baseline VT and GT values were measured for approximately 20 minutes. • 2. Benzamil was added to block ENaC for 15 minutes. • 3. Forskolin plus VX-770 (ivacaftor) were added to maximally activate ΔF508-CFTR for 27 minutes. • 4. Bumetanide was added to inhibit the NaK2Cl cotransporter and shut-off secretion of chloride.
The activity data captured was the area under the curve (AUC) for the traces of the equivalent chloride current. The AUC was collected from the time of the forskolin/VX-770 addition until the inhibition by bumetanide addition. Correction in response to compound treatment was scored as the increase in the AUC for compound-treated samples over that of vehicle-treated samples.

ΔF508-CFTR [2] = biological target: T1, ΔF508-CFTR; assay: Ussing measurements (short-circuit current, CFTRinh-172-inhibitable); format: cell-based; conditions: compound at 10 uM and VX-809 at 3 uM, relative to VX-809 (3 uM); hBEs homozygous for ΔF508, 24 hours treatment; CFTRinh-172-inhibitable current
Description: As discussed above, Ussing measurements can be used to measure CFTR activity. In this method, primary lung epithelial cells (hBEs) homozygous for the Cystic Fibrosis-causing ΔF508 mutation were differentiated for a minimum of 4 weeks in an air-liquid interface on SnapWell filter plates prior to the Ussing measurements. Cells were apically mucus-washed for 30 minutes prior to treatment with compounds. The basolateral media was removed and replaced with media containing the compound of interest diluted to its final concentration from DMSO stocks. Treated cells were incubated at 37° C. and 5% CO2 for 24 hours. At the end of the treatment period, the cells on filters were transferred to the Ussing chamber and equilibrated for 30 minutes. The short-circuit current was measured in voltage clamp-mode (Vhold=0 mV), and the entire assay was conducted at a temperature of 36° C.-36.5° C. Once the voltages stabilized, the chambers were clamped, and data was recorded by pulse readings every 5 seconds. Following baseline current stabilization, the following additions were applied and the changes in current and resistance of the cells was monitored: • 1. Benzamil to the apical chamber to inhibit ENaC sodium channel. • 2. Forskolin to both chambers to activate ΔF508-CFTR by phosphorylation. • 3. Genistein to both chambers to potentiate ΔF508-CFTR channel opening. • 4. CFTRinh-172 to the apical chamber to inhibit ΔF508-CFTR Cl— conductance. The inhibitable current (that current that is blocked by CFTRinh-172) is measured as the specific activity of the ΔF508-CFTR channel, and increases in response to compound in this activity over that observed in vehicle-treated samples are identified as the correction of ΔF508-CFTR function imparted by the compound tested.

T1 sequence (P13569 with tags, fused parts or gaps DEL508-508): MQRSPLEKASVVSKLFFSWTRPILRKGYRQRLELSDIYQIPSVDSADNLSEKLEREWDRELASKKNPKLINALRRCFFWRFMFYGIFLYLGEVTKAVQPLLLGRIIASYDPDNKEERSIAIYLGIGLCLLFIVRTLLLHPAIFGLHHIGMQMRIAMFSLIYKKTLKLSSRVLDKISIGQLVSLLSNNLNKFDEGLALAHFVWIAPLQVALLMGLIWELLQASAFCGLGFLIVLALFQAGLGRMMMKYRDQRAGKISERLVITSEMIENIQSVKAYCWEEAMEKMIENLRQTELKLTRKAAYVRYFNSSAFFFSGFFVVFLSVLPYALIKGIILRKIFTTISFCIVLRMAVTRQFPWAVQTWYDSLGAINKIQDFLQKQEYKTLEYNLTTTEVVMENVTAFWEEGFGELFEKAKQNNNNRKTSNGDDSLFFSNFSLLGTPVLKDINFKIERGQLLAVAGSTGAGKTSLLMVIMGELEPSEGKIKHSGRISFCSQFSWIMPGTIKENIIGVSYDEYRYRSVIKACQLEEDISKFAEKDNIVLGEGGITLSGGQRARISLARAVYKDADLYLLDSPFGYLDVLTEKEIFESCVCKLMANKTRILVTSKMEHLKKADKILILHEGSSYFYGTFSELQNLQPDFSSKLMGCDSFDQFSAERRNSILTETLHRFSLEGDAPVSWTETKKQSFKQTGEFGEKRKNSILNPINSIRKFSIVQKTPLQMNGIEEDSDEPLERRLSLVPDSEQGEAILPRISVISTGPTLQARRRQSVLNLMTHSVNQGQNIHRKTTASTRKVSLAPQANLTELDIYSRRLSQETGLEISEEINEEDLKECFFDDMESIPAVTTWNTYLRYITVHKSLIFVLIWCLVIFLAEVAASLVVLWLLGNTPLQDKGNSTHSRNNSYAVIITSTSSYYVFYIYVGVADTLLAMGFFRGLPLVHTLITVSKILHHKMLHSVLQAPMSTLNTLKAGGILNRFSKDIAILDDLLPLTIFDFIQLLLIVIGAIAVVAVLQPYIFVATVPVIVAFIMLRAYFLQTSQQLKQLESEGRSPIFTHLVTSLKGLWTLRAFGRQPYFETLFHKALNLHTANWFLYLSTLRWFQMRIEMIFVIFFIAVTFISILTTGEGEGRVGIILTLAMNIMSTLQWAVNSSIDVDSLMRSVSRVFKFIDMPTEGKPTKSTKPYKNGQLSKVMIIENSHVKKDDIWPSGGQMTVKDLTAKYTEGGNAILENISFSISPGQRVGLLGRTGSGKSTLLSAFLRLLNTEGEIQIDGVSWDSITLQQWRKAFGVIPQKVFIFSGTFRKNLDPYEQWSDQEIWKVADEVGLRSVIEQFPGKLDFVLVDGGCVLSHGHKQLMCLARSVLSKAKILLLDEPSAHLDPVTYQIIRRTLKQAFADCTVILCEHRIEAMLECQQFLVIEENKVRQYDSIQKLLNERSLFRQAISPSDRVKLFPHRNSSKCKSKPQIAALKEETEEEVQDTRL

| Structure (SMILES) | Ieq (% VX-809) (ΔF508-CFTR [1]) | Ussing (% VX-809) (ΔF508-CFTR [2]) |
| --- | --- | --- |
| O=C(N[C@H]1C[C@@H](n2cc(CO)nn2)C1)c1cc(-c2ccccc2)on1 | ** (activity ≥200% of VX-809 (1 uM) with compound at 10 uM and VX-809 at 1 uM) | ## (activity ≥200% of VX-809 (3 uM) with compound at 10 uM and VX-809 at 3 uM) |
| C[C@H](O)c1nnc(C[C@H]2C[C@H](NC(=O)c3cc(-c4ccccc4)on3)C2)s1 | ** (activity ≥200% of VX-809 (1 uM) with compound at 10 uM and VX-809 at 1 uM) | ## (activity ≥200% of VX-809 (3 uM) with compound at 10 uM and VX-809 at 3 uM) |
| C[C@@H](O)c1nnc(C2CC(NC(=O)c3cc(-c4ccccc4)on3)C2)o1 (stereo partly drawn) | ** (activity ≥200% of VX-809 (1 uM) with compound at 10 uM and VX-809 at 1 uM) | ## (activity ≥200% of VX-809 (3 uM) with compound at 10 uM and VX-809 at 3 uM) |
| C[C@H](O)c1nnc([C@H]2C[C@H](NC(=O)c3cc(-c4ccccc4)on3)C2)s1 | ** (activity ≥200% of VX-809 (1 uM) with compound at 10 uM and VX-809 at 1 uM) | ## (activity ≥200% of VX-809 (3 uM) with compound at 10 uM and VX-809 at 3 uM) |
| C[C@@H](O)c1nnc([C@H]2C[C@@H](NC(=O)c3cc(-c4ccccc4)on3)C2)o1 | ** (activity ≥200% of VX-809 (1 uM) with compound at 10 uM and VX-809 at 1 uM) | ## (activity ≥200% of VX-809 (3 uM) with compound at 10 uM and VX-809 at 3 uM) |
| C[C@@H](O)c1cnnn1[C@H]1C[C@H](NC(=O)c2cc(-c3ccccc3)on2)C1 | ** (activity ≥200% of VX-809 (1 uM) with compound at 10 uM and VX-809 at 1 uM) | ## (activity ≥200% of VX-809 (3 uM) with compound at 10 uM and VX-809 at 3 uM) |
